ChEMBL document CHEMBL5390254, “Discovery and Optimization of Novel hDHODH Inhibitors for the Treatment of Inflammatory Bowel Disease” (J Med Chem, 2023)
The source made the active and inactive calls. No cut-off for these calls is given here.

How the values were obtained:
[1] = Half life in Sprague-Dawley rat at 15 mg/kg, po and measured upto 48 hrs by LC-MS/MS analysis; assay type: ADME, organism-based; settings: in vivo
[2] = Acute toxicity in BALB/c mouse assessed as changes in ALP level in serum at 600 mg/kg,po and measured after 14 days by Biochemistry analysis; assay type: organism-based; settings: in vivo, 336 h, time 14 day
Mus musculus [3] = assay: Anti-inflammatory activity against DSS-induced acute ulcerative colitis in C57BL/6 mouse model assessed as decrease in body weight loss at 40 mg/kg, po QD for 6 days (Rvb= -13.4%); assay type: functional; set-up: scale not given: the % may be the effect or the level left; settings: time 6 day
[4] = Acute toxicity in BALB/c mouse assessed as tissue damage in lung at 600 mg/kg,po and measured after 14 days by hematoxylin and eosin staining based microscopy; assay type: organism-based; settings: in vivo, 336 h, time 14 day
[5] = Acute toxicity in BALB/c mouse assessed as changes in platelet count in blood at 600 mg/kg,po and measured after 14 days by hematology test; assay type: organism-based; settings: in vivo, 336 h, time 14 day
[6] = Acute toxicity in BALB/c mouse assessed as death at 600 mg/kg,po and measured for 14 days; assay type: organism-based; settings: in vivo, 336 h, time 14 day
Mus musculus [7] = assay: Anti-inflammatory activity against DSS-induced acute ulcerative colitis in C57BL/6 mouse model assessed as decrease in IL-17 mRNA expression level in colon at 40 mg/kg, po QD for 6 days by RT-PCR analysis; assay type: functional, organism-based; settings: time 6.0 day
[8] = Apparent volume of distribution during terminal phase in Sprague-Dawley rat at 5 mg/kg, iv and measured upto 48 hrs by LC-MS/MS analysis; assay type: ADME, organism-based; settings: in vivo
[9] = Acute toxicity in BALB/c mouse assessed as changes in RBC level in blood at 600 mg/kg,po and measured after 14 days by hematology test; assay type: organism-based, Erythrocyte; settings: in vivo, 336 h, time 14 day
[10] = Acute toxicity in BALB/c mouse assessed as changes in ALT level in serum at 600 mg/kg,po and measured after 14 days by Biochemistry analysis; assay type: organism-based; settings: in vivo, 336 h, time 14 day
[11] = Acute toxicity in BALB/c mouse assessed as changes in hematocrit level in blood at 600 mg/kg,po and measured after 14 days by hematology test; assay type: organism-based; settings: in vivo, 336 h, time 14 day
[12] = Clearance in Sprague-Dawley rat at 5 mg/kg, iv and measured upto 48 hrs by LC-MS/MS analysis; assay type: ADME, organism-based; settings: in vivo
Mus musculus [13] = assay: Anti-inflammatory activity against DSS-induced acute ulcerative colitis in C57BL/6 mouse model assessed as decrease in body weight loss at 40 mg/kg, po QD for 6 days (Rvb= 25.6%); assay type: functional; set-up: scale not given: the % may be the effect or the level left; settings: time 6 day
Mus musculus [14] = assay: Anti-inflammatory activity against DSS-induced acute ulcerative colitis in C57BL/6 mouse model assessed as decrease in IL-6 production in colon at 40 mg/kg, po QD for 6 days by ELISA; assay type: functional; set-up: scale not given: the % may be the effect or the level left; settings: time 6 day
[15] = Acute toxicity in BALB/c mouse assessed as tissue damage in kidney at 600 mg/kg,po and measured after 14 days by hematoxylin and eosin staining based microscopy; assay type: organism-based; settings: in vivo, 336 h, time 14 day
[16] = Acute toxicity in BALB/c mouse assessed as tissue damage in heart at 600 mg/kg,po and measured after 14 days by hematoxylin and eosin staining based microscopy; assay type: organism-based; settings: in vivo, 336 h, time 14 day
[17] = Acute toxicity in BALB/c mouse assessed as tissue damage in spleen at 600 mg/kg,po and measured after 14 days by hematoxylin and eosin staining based microscopy; assay type: organism-based; settings: in vivo, 336 h, time 14 day
[18] = Drug distribution in colon of DSS-induced acute ulcerative colitis in C57BL/6 mouse model at 40 mg/kg,po and measured after 2 hrs by LC-MS/MS analysis; assay type: ADME, organism-based; settings: in vivo
[19] = Acute toxicity in BALB/c mouse assessed as changes in CREA level in serum at 600 mg/kg,po and measured after 14 days by Biochemistry analysis; assay type: organism-based; settings: in vivo, 336 h, time 14 day
[20] = Acute toxicity in BALB/c mouse assessed as changes in lymph level in blood at 600 mg/kg,po and measured after 14 days by hematology test; assay type: organism-based; settings: in vivo, 336 h, time 14 day
[21] = Cmax in Sprague-Dawley rat at 5 mg/kg, iv and measured upto 48 hrs by LC-MS/MS analysis; assay type: ADME, organism-based; set-up: time < 48 hrs, dose 5 mg/kg, route iv; settings: in vivo
Mus musculus [22] = assay: Anti-inflammatory activity against DSS-induced acute ulcerative colitis in C57BL/6 mouse model assessed as increase in colon length at 20 mg/kg, po QD for 6 days (Rvb= 5.3cm); assay type: functional; settings: time 6 day
Mus musculus [23] = assay: Anti-inflammatory activity against DSS-induced acute ulcerative colitis in C57BL/6 mouse model assessed as decrease in colon tissue damage score at 40 mg/kg, po QD for 6 days relative to DSS group; assay type: functional; set-up: scale not given: the % may be the effect or the level left; settings: time 6 day
[24] = Metabolic stability in rat liver microsomes assessed as half life at 3 uM incubated upto 90 mins in presence of NADPH by LC-MS/MS analysis; assay type: ADME, Microsome
[25] = Metabolic stability in mouse liver microsomes assessed as intrinsic clearance at 3 uM incubated upto 90 mins in presence of NADPH by LC-MS/MS analysis; assay type: ADME, Microsome; settings: read-out: CLH
[26] = Oral bioavailability in Sprague-Dawley rat at 15 mg/kg and measured upto 48 hrs by LC-MS/MS analysis; assay type: ADME, organism-based; settings: in vivo
[27] = Acute toxicity in BALB/c mouse assessed as changes in LDH level in serum at 600 mg/kg,po and measured after 14 days by Biochemistry analysis; assay type: organism-based; settings: in vivo, 336 h, time 14 day
Mus musculus [28] = assay: Anti-inflammatory activity against DSS-induced acute ulcerative colitis in C57BL/6 mouse model assessed as decrease in IL-1beta mRNA expression level in colon at 40 mg/kg, po QD for 6 days by RT-PCR analysis; assay type: functional, organism-based; settings: time 6.0 day
[29] = Tmax in Sprague-Dawley rat at 15 mg/kg, po and measured upto 48 hrs by LC-MS/MS analysis; assay type: ADME, organism-based; settings: in vivo
Mus musculus [30] = assay: Anti-inflammatory activity against DSS-induced acute ulcerative colitis in C57BL/6 mouse model assessed as decrease in IL-1beta production in colon at 40 mg/kg, po QD for 6 days by ELISA; assay type: functional; set-up: scale not given: the % may be the effect or the level left; settings: time 6 day
Mus musculus [31] = assay: Anti-inflammatory activity against DSS-induced acute ulcerative colitis in C57BL/6 mouse model assessed as decrease in colon length shortening at 40 mg/kg, po QD for 6 days (Rvb= 5.5cm); assay type: functional; settings: time 6 day
Mus musculus [32] = assay: Anti-inflammatory activity against DSS-induced acute ulcerative colitis in C57BL/6 mouse model assessed as increase in colon length at 40 mg/kg, po QD for 6 days (Rvb= 5.3cm); assay type: functional; settings: time 6 day
[33] = Acute toxicity in BALB/c mouse assessed as tissue damage in liver at 600 mg/kg,po and measured after 14 days by hematoxylin and eosin staining based microscopy; assay type: organism-based; settings: in vivo, 336 h, time 14 day
Mus musculus [34] = assay: Anti-inflammatory activity against DSS-induced acute ulcerative colitis in C57BL/6 mouse model assessed as decrease in IL-1beta protein level in colon at 20 to 80 mg/kg, po QD for 6 days by ELISA; assay type: functional, organism-based; settings: dose 20-80 mg/kg, time 6.0 day
[35] = 1-octanol/water partition coefficient, logP of the compound at 2 mg by UPLC analysis; assay type: physicochemical
Mus musculus [36] = assay: Anti-inflammatory activity against DSS-induced acute ulcerative colitis in C57BL/6 mouse model assessed as decrease in DAI score at 40 mg/kg, po QD for 6 days; assay type: functional, organism-based; settings: time 6.0 day
[37] = AUCt in Sprague-Dawley rat at 15 mg/kg, po and measured upto 48 hrs by LC-MS/MS analysis; assay type: ADME, organism-based; set-up: dose 15 mg/kg, time < 48 hrs, route po; settings: in vivo

In the case of `Nc1nc(-c2cn(Cc3c(F)cccc3Cl)c3ncccc23)ncc1C1CC1`, the half-life [1] is reported as 1.6 h, the Activity [2] is reported as “Non-Toxic” and the Activity (Mus musculus [3]) is reported as -4.2%. For the same compound, the Activity [4] was “Non-Toxic”, the Activity [5] was “Non-Toxic” and the Activity [6] was “Non-Toxic”. For the same compound, the Activity (Mus musculus [7]) was “Active”, the Vz/F [8] was 1.05 L/kg and the Activity [9] was “Non-Toxic”. For the same compound, the Activity [10] was “Non-Toxic”, the Activity [11] was “Non-Toxic” and the clearance [12] was 5 mL/min/kg. The Activity (Mus musculus [13]) was 7.4%, the Activity (Mus musculus [14]) was 77.73% and the Activity [15] was “Non-Toxic”. For the same compound, the Activity [16] was “Non-Toxic”, the Activity [17] was “Non-Toxic” and the Drug uptake [18] was “Active”. For the same compound, the Activity [19] was “Non-Toxic”, the Activity [20] was “Non-Toxic” and the Cmax [21] was 12300 ng/mL. The Activity (Mus musculus [22]) was 6.1 cm, the Activity (Mus musculus [23]) was 54.55% and the half-life at 3 µM [24] was 7.8 min. For the same compound, the CLint scaled at 3 µM [25] was 581 mL/min/kg, the bioavailability [26] was 21.7% and the Activity [27] was “Non-Toxic”. The Activity (Mus musculus [28]) was “Active”, the Tmax [29] was 2 h and the Activity (Mus musculus [30]) was 84.32%. For the same compound, the Activity (Mus musculus [31]) was 7 cm, the Activity (Mus musculus [32]) was 6.7 cm and the Activity [33] was “Non-Toxic”. The Activity (Mus musculus [34]) was “Dose-Dependent Effect”, the logP [35] was 5.3 and the Activity (Mus musculus [36]) was “Active”. The AUC(0-t) at 48 h [37] was 11600 ng·h/mL.
